Structures can show the parent of a compound that is named as a salt. A value given as a limit tells only on which side of the number the result lay.

Consider 30 molecules from US20240383908A1, “SYNTHESIS AND APPLICATION OF PHOSPHATASE DEGRADER” (HINOVA PHARMACEUTICALS INC., priority 2021, published 2024).

The experiment deals with T1, SHP2 protein (Homo sapiens, UniProt Q06124).
T1 sequence (Q06124 1-593): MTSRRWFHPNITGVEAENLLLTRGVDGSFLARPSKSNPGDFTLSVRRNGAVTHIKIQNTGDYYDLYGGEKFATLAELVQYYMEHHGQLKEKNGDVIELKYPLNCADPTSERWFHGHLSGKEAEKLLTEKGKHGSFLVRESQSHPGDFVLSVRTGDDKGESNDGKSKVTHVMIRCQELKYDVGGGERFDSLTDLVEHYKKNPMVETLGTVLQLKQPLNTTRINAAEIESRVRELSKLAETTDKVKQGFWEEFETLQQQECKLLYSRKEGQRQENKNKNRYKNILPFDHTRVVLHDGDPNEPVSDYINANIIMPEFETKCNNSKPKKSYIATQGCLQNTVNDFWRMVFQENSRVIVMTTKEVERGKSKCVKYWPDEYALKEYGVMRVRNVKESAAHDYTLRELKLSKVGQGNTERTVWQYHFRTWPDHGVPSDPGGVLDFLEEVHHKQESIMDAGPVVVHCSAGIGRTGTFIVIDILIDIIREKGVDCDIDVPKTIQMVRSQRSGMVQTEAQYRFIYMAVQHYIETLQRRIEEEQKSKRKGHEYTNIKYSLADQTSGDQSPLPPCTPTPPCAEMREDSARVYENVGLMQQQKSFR
The experiment in a line: Degradation activity on SHP2 protein in MIA Paca-2 cells (Western blot, DC50). Format: cell-based. Also noted: endogenous in cells; host or cells: MIA Paca-2 cells. To be noted: read-out: Degradation activity for differenct cell lines MIA Paca-2 (DC50). The method, then:
(1) MV-411 cells were cultured in the cell culture medium, and then well-growing cells were selected and inoculated in a 12-well plate, with 1 mL/well and 1×10^6 cells/well. The plate was incubated overnight in a 5% CO2 cell incubator at 37° C.
(2) 10 mM storage solution of each drug was prepared using dimethylsulfoxide (DMSO). The stock solution was diluted gradually with DMSO before use, and then 1 μL of the compound solution was added to the cell culture well (to ensure that the DMSO concentration in the culture system was […]), so that the final drug concentration is 100 nM, 10 nM, 3 nM, 1 nM, 0.3 nM, and 0.1 nM. Two wells were set for each concentration. The plate was gently shaken and mixed. Additionally, negative control wells (containing an equal amount of DMSO) and positive control wells were included.
(3) After 24 hours of cultivation, the cells were lysed using RIPA cell lysate, and the proteins were extracted. The protein concentration was measured using a BCA assay kit. 5× concentrated protein buffer was loaded, heated at 100° C. for 5 min, and then the sample was stored at −20° C.
(4) For each well, 30 μg of protein was loaded to polyacrylamide gel for electrophoresis.
(5) The protein was transferred from polyacrylamide gel to PVDF membrane, and sealed at room temperature with 5% skimmed milk for 1 h, which was then incubated with the primary antibodies (Anti-SHP2 rabbit mAb and Anti-GAPDH rabbit mAb) at 4° C. overnight. The membrane was washed three times with TBST solution, 10 minutes for each time. After that, the membrane was incubated with the secondary antibodies (horseradish peroxidase labeled goat anti-rabbit IgG) at room temperature for 2 h, and then washed three times with TBST solution, 10 minutes for each time, followed by exposure.
(6) The images were analyzed with Image J grayscale, and the degradation ratio of protein bands in the test group was calculated, based on the negative control group (DMSO) (100%).
(7) Using the Dose-response-inhibition equation in the data processing software GraphPad Prism 8, the DC50 value was obtained (which represents the drug concentration corresponding to 50% degradation of the target protein).
Using similar methods and different cell lines, the degradation activity of the compound according to the present invention on SHP2 protein of different cell lines was tested under suitable culture conditions.
For orientation: In western blotting, separated proteins are transferred to a membrane and probed.
For orientation: DC50 means the concentration giving 50% degradation. With `CC1(N)CCN(c2cnc(Sc3cccc(NC(=O)C4CC45CCN(c4ccc(CN6CCN(c7ccc8c(c7)CN(C7CCC(=O)NC7=O)C8=O)CC6)cc4F)CC5)c3)cn2)CC1` (stereo not drawn) [Compound 272], the DC50 is greater than 1 µM.

On to `C[C@@H]1OCC2(CCN(c3cnc(Sc4cccc(NC(=O)C5CC56CCN(c5ccc(CN7CCN(c8ccc9c(c8)CN(C8CCC(=O)NC8=O)C9=O)CC7)cc5F)CC6)c4)cn3)CC2)[C@@H]1N` (stereo partly drawn) [Compound 273], for which the DC50 is greater than 1 µM.

For `CC1(N)CCN(c2cnc(Sc3cccc(NC(=O)CCN4CC=C(c5ccc(C(=O)NCc6ccc7c(c6)CN(C6CCC(=O)NC6=O)C7=O)nc5)C(C)(C)C4)c3)cn2)CC1` (stereo not drawn) [Compound 274], the half-maximal degradation concentration (DC50) was greater than 1 µM.

For `C[C@@H]1OCC2(CCN(c3cnc(Sc4cccc(NC(=O)CCN5CC=C(c6ccc(C(=O)NCc7ccc8c(c7)CN(C7CCC(=O)NC7=O)C8=O)nc6)C(C)(C)C5)c4)cn3)CC2)[C@@H]1N` (stereo partly drawn) [Compound 275], the 50% degradation concentration (DC50) was greater than 1 µM.

`C[C@@H]1OCC2(CCN(c3cnc(Sc4cccc(NC(=O)CCN5CC=C(c6ccc(C(=O)N7CCN(c8ccc9c(c8)CN(C8CCC(=O)NC8=O)C9=O)CC7)nc6)C(C)(C)C5)c4)cn3)CC2)[C@@H]1N` (stereo partly drawn) [Compound 276]: the DC50 was greater than 1 µM.

As to `CC1(N)CCN(c2cnc(Sc3cccc(NC(=O)c4ccc(N5CCC(N6CCN(c7ccc8c(c7)C(=O)N(C7CCC(=O)NC7=O)C8=O)CC6)CC5)c(F)c4)c3)cn2)CC1` (stereo not drawn) [Compound 277], the DC50 was greater than 1 µM.

As to `CC1(N)CCN(c2cnc(Sc3cccc(NC(=O)c4ccc(N5CCC(N6CCN(c7ccc8c(c7)CN(C7CCC(=O)NC7=O)C8=O)CC6)CC5)c(F)c4)c3)cn2)CC1` (stereo not drawn) [Compound 278], the DC50 is greater than 1 µM.

For the molecule `C[C@@H]1OCC2(CCN(c3cnc(Sc4cccc(NC(=O)c5ccc(N6CCC(N7CCN(c8ccc9c(c8)C(=O)N(C8CCC(=O)NC8=O)C9=O)CC7)CC6)c(F)c5)c4)cn3)CC2)[C@@H]1N` (stereo partly drawn) [Compound 279], the 50% degradation concentration (DC50) is greater than 1 µM.

With `C[C@@H]1OCC2(CCN(c3cnc(Sc4cccc(NC(=O)c5ccc(N6CCC(N7CCN(c8ccc9c(c8)CN(C8CCC(=O)NC8=O)C9=O)CC7)CC6)c(F)c5)c4)cn3)CC2)[C@@H]1N` (stereo partly drawn) [Compound 280], the DC50 is greater than 1 µM.

`CC1(N)CCN(c2cnc(Sc3cccc(NC(=O)[C@H]4C[C@@H]4c4ccc(N5CCN(c6ccc(C(=O)NCc7ccc8c(c7)CN(C7CCC(=O)NC7=O)C8=O)nn6)CC5)c(F)c4)c3)cn2)CC1` (stereo partly drawn) [Compound 281]: the DC50 was greater than 1 µM.

With `C[C@@H]1OCC2(CCN(c3cnc(Sc4cccc(NC(=O)[C@H]5C[C@@H]5c5ccc(N6CCN(c7ccc(C(=O)NCc8ccc9c(c8)CN(C8CCC(=O)NC8=O)C9=O)nn7)CC6)c(F)c5)c4)cn3)CC2)[C@@H]1N` (stereo partly drawn) [Compound 282], the half-maximal degradation concentration (DC50) is greater than 1 µM.

Take `CC1(N)CCN(c2cnc(Sc3cccc(NC(=O)[C@H]4C[C@@H]4c4ccc(N5CCN(c6ccc(C(=O)N7CCN(c8ccc9c(c8)CN(C8CCC(=O)NC8=O)C9=O)CC7)nn6)CC5)c(F)c4)c3)cn2)CC1` (stereo partly drawn) [Compound 283]: the DC50 was greater than 1 µM.

On to `C[C@@H]1OCC2(CCN(c3cnc(Sc4cccc(NC(=O)[C@H]5C[C@@H]5c5ccc(N6CCN(c7ccc(C(=O)N8CCN(c9ccc%10c(c9)CN(C9CCC(=O)NC9=O)C%10=O)CC8)nn7)CC6)c(F)c5)c4)cn3)CC2)[C@@H]1N` (stereo partly drawn) [Compound 284], for which the half-maximal degradation concentration (DC50) is less than 0.1 µM.

In the case of `C[C@@H]1OCC2(CCN(c3cnc(Sc4cccc(NC(=O)c5ccc(CN6CCN(c7ccc8c(c7)CN(C7CCC(=O)NC7=O)C8=O)CC6)cc5)c4)cn3)CC2)[C@@H]1N` (stereo partly drawn) [Compound 285], the half-maximal degradation concentration (DC50) is greater than 1 µM.

As for `CC1(N)CCN(c2cnc(Sc3cccc(NC(=O)c4ccc(CN5CCN(c6ccc7c(c6)CN(C6CCC(=O)NC6=O)C7=O)CC5)cc4)c3)cn2)CC1` (stereo not drawn) [Compound 286], the half-maximal degradation concentration (DC50) is greater than 1 µM.

Take `C[C@@H]1OCC2(CCN(c3cnc(Sc4cccc(NC(=O)c5ccc(CN6CCN(c7ccc8c(c7)C(=O)N(C7CCC(=O)NC7=O)C8=O)CC6)cc5)c4)cn3)CC2)[C@@H]1N` (stereo partly drawn) [Compound 287]: the DC50 was greater than 1 µM.

With `CC1(N)CCN(c2cnc(Sc3cccc(NC(=O)c4ccc(CN5CCN(c6ccc7c(c6)C(=O)N(C6CCC(=O)NC6=O)C7=O)CC5)cc4)c3)cn2)CC1` (stereo not drawn) [Compound 288], the DC50 was greater than 1 µM.

Take `C[C@@H]1OCC2(CCN(c3cnc(Sc4cccc(NC(=O)CCN5CCN(c6ccc(C(=O)NCc7ccc8c(c7)CN(C7CCC(=O)NC7=O)C8=O)nn6)CC5)c4)cn3)CC2)[C@@H]1N` (stereo partly drawn) [Compound 289]: the DC50 is greater than 1 µM.

As for `CC1(N)CCN(c2cnc(Sc3cccc(NC(=O)C4CC45CCN(C4CCN(c6ccc(C(=O)NCc7ccc8c(c7)CN(C7CCC(=O)NC7=O)C8=O)nn6)CC4)CC5)c3)cn2)CC1` (stereo not drawn) [Compound 290], the 50% degradation concentration (DC50) is greater than 1 µM.

On to `CC1(N)CCN(c2cnc(Sc3cccc(NCc4ccc(N5CCC(N6CCN(c7ccc8c(c7)C(=O)N(C7CCC(=O)NC7=O)C8)CC6)CC5)c(F)c4)c3)cn2)CC1` (stereo not drawn) [Compound 291], for which the half-maximal degradation concentration (DC50) was greater than 1 µM.

Take `Cc1ncsc1-c1ccc([C@H](C)NC(=O)[C@@H]2C[C@@H](O)CN2C(=O)[C@@H](NC(=O)c2cnc(N3CCN(C4CC(C(=O)Nc5cccc(Sc6cnc(N7CCC8(CC7)CO[C@@H](C)[C@H]8N)cn6)c5)C4)CC3)nc2)C(C)(C)C)cc1` (stereo partly drawn) [Compound 294, 2-(4-(3-((3-((5-((3S,4S)-4-amino-3-methyl-2-oxa-8-azaspiro[4.5]decan-8-yl)pyrazin-2-yl)thio)phenyl)carbamoyl)cyclobutyl)piperazin-1-yl)-N—((S)-1-((2S,4R)-4-hydroxyl-2-(((S)-1-(4-(4-methylthiazol-5-yl)phenyl)ethyl)carbamoyl)pyrrolin-1-yl)-3,3-dimethyl-1-oxobutane-2-yl)pyrimidine-5-formamide hydrochloride]: the DC50 is less than 0.1 µM.

Turning to `CC1(N)CCN(c2cnc(Sc3cccc(NC(=O)c4ccc(N5CCC(N6CC=C(c7ccc(C(=O)NCc8ccc9c(c8)CN(C8CCC(=O)NC8=O)C9=O)nc7)CC6)CC5)c(F)c4)c3)cn2)CC1` (stereo not drawn) [Compound 295, hydrochloride], the DC50 was less than 0.1 µM.

Consider `CC1(N)CCN(c2cnc(Sc3cccc(NC(=O)C4CC(N5CCC(N6CC=C(c7ccc(C(=O)NCc8ccc9c(c8)CN(C8CCC(=O)NC8=O)C9=O)nn7)CC6)CC5)C4)c3)cn2)CC1` (stereo not drawn) [Compound 296], for which the DC50 was less than 0.1 µM.

For `C[C@@H]1OCC2(CCN(c3cnc(Sc4cccc(NC(=O)c5cccc(CN6CCN(c7ccc8c(c7)CN(C7CCC(=O)NC7=O)C8=O)CC6)c5)c4)cn3)CC2)[C@@H]1N` (stereo partly drawn) [Compound 297], the DC50 was greater than 1 µM.

Consider `CC1(N)CCN(c2cnc(Sc3cccc(NC(=O)c4cccc(CN5CCN(c6ccc7c(c6)CN(C6CCC(=O)NC6=O)C7=O)CC5)c4)c3)cn2)CC1` (stereo not drawn) [Compound 298], for which the DC50 was greater than 1 µM.

Consider `CC1(N)CCN(c2cnc(Sc3cccc(NC(=O)C4CC45CCN(c4ccc(C(=O)NCc6ccc7c(c6)CN(C6CCC(=O)NC6=O)C7=O)nn4)CC5)c3)cn2)CC1` (stereo not drawn) [Compound 299], for which the DC50 is greater than 1 µM.

`CC1(N)CCN(c2cnc(Sc3cccc(NC(=O)C4CC(N5CC=C(c6ccc(C(=O)NCc7ccc8c(c7)C(=O)N(C7CCC(=O)NC7=O)C8)nc6)CC5)C4)c3)cn2)CC1` (stereo not drawn) [Compound 302]: the DC50 was greater than 1 µM.

As for `CC1(N)CCN(c2cnc(Sc3cccc(NC(=O)c4ccc(N5CCC(N6CC=C(c7ccc(C(=O)NCc8ccc9c(c8)CN(C8CCC(=O)NC8=O)C9=O)nc7)C(C)(C)C6)CC5)cc4)c3)cn2)CC1` (stereo not drawn) [Compound 303], the DC50 is less than 0.1 µM.

Consider `CC1(N)CCN(c2cnc(Sc3cccc(NC(=O)c4ccc(N5CCC(N6CC=C(c7ccc(C(=O)N8CCN(c9ccc%10c(c9)CN(C9CCC(=O)NC9=O)C%10=O)CC8)nc7)C(C)(C)C6)CC5)cc4)c3)cn2)CC1` (stereo not drawn) [Compound 304], for which the DC50 was less than 0.1 µM.

In the case of `CC1(N)CCN(c2cnc(Sc3cccc(NC(=O)C4CCC(N5CC=C(c6ccc(C(=O)N7CCN(c8ccc9c(c8)CN(C8CCC(=O)NC8=O)C9=O)CC7)nc6)CC5)CC4)c3)cn2)CC1` (stereo not drawn) [Compound 305], the DC50 is greater than 1 µM.
